Test results taken from patent US20260207623A1, “USE OF ESTETROL IN HEPATICALLY IMPAIRED PATIENTS” (ESTETRA SRL, priority 2022, published 2026).

System: post-menopausal women
Assay: Example 2 dose-finding study: weekly frequency of moderate to severe VMS (absolute and relative change, responders)
Format: in vivo, human
Settings: for Weekly frequency of moderate to severe VMS, relative change (% from baseline), Mean: section B analysis
Excerpt: Enrolment was approximately 18 months. Individual subject participation was up to 27 weeks: up to 6 weeks pre-screening and washout, up to 4 weeks screening and run-in period, up to 91 days (13 weeks) of E4 monohydrate or placebo treatment followed by 2 weeks (14 days) of progestin therapy and a Follow up visit 1 week after completion of progestin therapy in non-hysterectomied subjects only.
To define the minimum effective dose (MED) of the oral dose of E4 by evaluating changes in frequency and in severity of moderate to severe vasomotor symptoms (VMS).
This was a prospective, multicentre, randomised, placebo-controlled, double-blinded, dose-finding study.
Eligible subjects were hysterectomied and non-hysterectomied post-menopausal women aged 40 to 65 years, inclusive, presenting at least 7 moderate to severe hot flushes/day or at least 50 moderate to severe hot flushes/week.
All treatments (Estetrol, hereinafter E4 as monohydrate, [2.5 mg, 5 mg, 10 mg, 15 mg] capsule) were administered once daily (QD) per os for at least 12 consecutive weeks until the last biological assessments (Day 91 maximum) had been performed.
In order to analyse the data recorded in this study, treatment groups have been compared using an ANCOVA (analysis of covariance) with respect to the change in weekly frequency of moderate to severe VMS from baseline to weeks 4 and 12. The ANCOVA model includes treatment (“trt1”) and study centre (“SITEPOOL”) as a fixed effect and baseline (“base”) as a covariate.
VMS frequency was also studied by grouping patients according to their degree of response.

In the case of `C[C@]12CC[C@@H]3c4ccc(O)cc4CC[C@H]3[C@@H]1[C@@H](O)[C@@H](O)[C@@H]2O` [E4 monohydrate, estetrol monohydrate], the “Mean change from baseline in weekly frequency of moderate to severe VMS” value (2.5 mg QD, week 0) is reported as 0.00, the “Mean relative change (% from baseline) in weekly frequency of moderate to severe VMS” value (from here on “Mean relative change (% from baseline)”) (2.5 mg QD, week 0) is reported as 0% and the “Mean relative change (% from baseline)” value (2.5 mg QD, week 1) is reported as −23%. For the same compound, the “Mean relative change (% from baseline)” value (2.5 mg QD, week 2) was −34%, the “Mean relative change (% from baseline)” value (2.5 mg QD, week 3) was −44% and the “Mean relative change (% from baseline)” value (2.5 mg QD, week 4) was −49%. The “Mean relative change (% from baseline)” value (2.5 mg QD, week 5) was −50%, the “Mean relative change (% from baseline)” value (2.5 mg QD, week 6) was −54% and the “Mean relative change (% from baseline)” value (2.5 mg QD, week 7) was −57%. The “Mean relative change (% from baseline)” value (2.5 mg QD, week 8) was −58%, the “Mean relative change (% from baseline)” value (2.5 mg QD, week 9) was −61% and the “Mean relative change (% from baseline)” value (2.5 mg QD, week 10) was −61%. For the same compound, the “Mean relative change (% from baseline)” value (2.5 mg QD, week 11) was −60%, the “Mean relative change (% from baseline)” value (2.5 mg QD, week 12) was −61% and the “Mean change from baseline in weekly frequency of moderate to severe VMS” value (5 mg QD, week 0) was 0.00. For the same compound, the “Mean relative change (% from baseline)” value (5 mg QD, week 0) was 0%, the “Mean relative change (% from baseline)” value (5 mg QD, week 1) was −23% and the “Mean relative change (% from baseline)” value (5 mg QD, week 2) was −33%. For the same compound, the “Mean relative change (% from baseline)” value (5 mg QD, week 3) was −38%, the “Mean relative change (% from baseline)” value (5 mg QD, week 4) was −43% and the “Mean relative change (% from baseline)” value (5 mg QD, week 5) was −47%. For the same compound, the “Mean relative change (% from baseline)” value (5 mg QD, week 6) was −57%, the “Mean relative change (% from baseline)” value (5 mg QD, week 7) was −57% and the “Mean relative change (% from baseline)” value (5 mg QD, week 8) was −57%. The “Mean relative change (% from baseline)” value (5 mg QD, week 9) was −59%, the “Mean relative change (% from baseline)” value (5 mg QD, week 10) was −60% and the “Mean relative change (% from baseline)” value (5 mg QD, week 11) was −63%. For the same compound, the “Mean relative change (% from baseline)” value (5 mg QD, week 12) was −62%, the “Mean relative change (% from baseline)” value (10 mg QD, week 1) was −21% and the “Mean relative change (% from baseline)” value (10 mg QD, week 2) was −37%. The “Mean relative change (% from baseline)” value (10 mg QD, week 3) was −48%, the “Mean relative change (% from baseline)” value (10 mg QD, week 4) was −55% and the “Mean relative change (% from baseline)” value (10 mg QD, week 5) was −60%. The “Mean relative change (% from baseline)” value (10 mg QD, week 6) was −65%, the “Mean relative change (% from baseline)” value (10 mg QD, week 10) was −70% and the “Mean relative change (% from baseline)” value (10 mg QD, week 11) was −70%. The “Mean relative change (% from baseline)” value (10 mg QD, week 12) was −72%, the “Weekly frequency of moderate to severe VMS, relative change (% from baseline), Mean” value (10 mg daily, week 0) was 0% and the “Weekly frequency of moderate to severe VMS, relative change (% from baseline), Mean” value (10 mg daily, week 1) was −21%. The “Weekly frequency of moderate to severe VMS, relative change (% from baseline), Mean” value (10 mg daily, week 2) was −37%, the “Weekly frequency of moderate to severe VMS, relative change (% from baseline), Mean” value (10 mg daily, week 3) was −48% and the “Weekly frequency of moderate to severe VMS, relative change (% from baseline), Mean” value (10 mg daily, week 4) was −55%. The “Weekly frequency of moderate to severe VMS, relative change (% from baseline), Mean” value (10 mg daily, week 5) was −60%, the “Weekly frequency of moderate to severe VMS, relative change (% from baseline), Mean” value (10 mg daily, week 6) was −65% and the “Weekly frequency of moderate to severe VMS, relative change (% from baseline), Mean” value (10 mg daily, week 7) was −66%. The “Weekly frequency of moderate to severe VMS, relative change (% from baseline), Mean” value (10 mg daily, week 8) was −68%, the “Weekly frequency of moderate to severe VMS, relative change (% from baseline), Mean” value (10 mg daily, week 9) was −69% and the “Weekly frequency of moderate to severe VMS, relative change (% from baseline), Mean” value (10 mg daily, week 10) was −70%. For the same compound, the “Weekly frequency of moderate to severe VMS, relative change (% from baseline), Mean” value (10 mg daily, week 11) was −70%, the “Weekly frequency of moderate to severe VMS, relative change (% from baseline), Mean” value (10 mg daily, week 12) was −72% and the “Mean relative change (% from baseline)” value (15 mg QD, week 2) was −46%. The “Mean relative change (% from baseline)” value (15 mg QD, week 3) was −57%, the “Mean relative change (% from baseline)” value (15 mg QD, week 4) was −67% and the “Mean relative change (% from baseline)” value (15 mg QD, week 8) was −79%. The “Mean relative change (% from baseline)” value (15 mg QD, week 10) was −80%, the “Mean relative change (% from baseline)” value (15 mg QD, week 11) was −82% and the “Mean relative change (% from baseline)” value (15 mg QD, week 12) was −84%. For the same compound, the “Weekly frequency of moderate to severe VMS, relative change (% from baseline), Mean” value (15 mg daily, week 0) was 0%, the “Weekly frequency of moderate to severe VMS, relative change (% from baseline), Mean” value (15 mg daily, week 1) was −22% and the “Weekly frequency of moderate to severe VMS, relative change (% from baseline), Mean” value (15 mg daily, week 2) was −46%. For the same compound, the “Weekly frequency of moderate to severe VMS, relative change (% from baseline), Mean” value (15 mg daily, week 3) was −57%, the “Weekly frequency of moderate to severe VMS, relative change (% from baseline), Mean” value (15 mg daily, week 4) was −67% and the “Weekly frequency of moderate to severe VMS, relative change (% from baseline), Mean” value (15 mg daily, week 5) was −72%. For the same compound, the “Weekly frequency of moderate to severe VMS, relative change (% from baseline), Mean” value (15 mg daily, week 6) was −76%, the “Weekly frequency of moderate to severe VMS, relative change (% from baseline), Mean” value (15 mg daily, week 7) was −79% and the “Weekly frequency of moderate to severe VMS, relative change (% from baseline), Mean” value (15 mg daily, week 8) was −79%. The “Weekly frequency of moderate to severe VMS, relative change (% from baseline), Mean” value (15 mg daily, week 9) was −81%.
